In US9637473B2, “Acrylamide derivatives as antimalarial agents” (priority 2013, dated 2017) one finds IC50 data, which are given here for 20 compounds.

Structures can show the parent of a compound that is named as a salt.

The assay deals with P. Falciparum NF54. Nature of the assay: Plasmodium falciparum in vitro assay ([3H]-hypoxanthine incorporation). Format: cell-based. Conditions: Plasmodium falciparum, Erythrocyte, P. Falciparum NF54, erythrocytic stages in human red blood cells, 50% human serum. The method, boiled down: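 Activity against the blood stages of Plasmodium falciparum growing in human red blood cells was measured by how much [3H]-hypoxanthine the parasites took up. Filters were dried, sealed in plastic foil containing 10 mL of scintillation fluid, and read on a Betaplate liquid scintillation counter. IC50 values came from sigmoidal inhibition curves fitted in Microsoft Excel.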
What is called IC50 is the concentration needed to halve the response being measured. A high value points to weaker potency. `Cc1cc(Nc2ccc(CN(C(=O)/C=C/c3ccc(C(F)(F)F)cc3)C3CCN(Cc4cncnc4)CC3)cc2)ccn1` [Example 49, (E)-N-[4-(2-Methyl-pyridin-4-ylamino)-benzyl]-N-(1-pyrimidin-5-ylmethyl-piperidin-4-yl)-3-(4-trifluoromethyl-phenyl)-acrylamide] yielded an IC50 of 280 nM. In the case of `CN1CCC(Nc2ccc(CN(C(=O)/C=C/c3ccc(C(F)(F)F)cc3)C3CCN(C4CCCC4)CC3)cn2)CC1` [Example 105, (E)-N-(1-Cyclopentyl-piperidin-4-yl)-N-[6-(1-methyl-piperidin-4-ylamino)-pyridin-3-ylmethyl]-3-(4-trifluoromethyl-phenyl)-acrylamide] it was 152 nM; in that of `CC(C)CCN1CCC(N(Cc2ccc(N(C)c3ccncc3)cc2)C(=O)/C=C/c2ccc(C(F)(F)F)cc2)CC1` [Example 8, (E)-N-[1-(3-Methyl-butyl)-piperidin-4-yl]-N-[4-(methyl-pyridin-4-yl-amino)-benzyl]-3-(4-trifluoromethyl-phenyl)-acrylamide], 43 nM; in that of `CN(c1ccncc1)c1ccc(CN(C(=O)/C=C/c2cccc(F)c2)C2CCN(Cc3ccccc3)CC2)cc1` [Example 156, (E)-N-(1-Benzyl-piperidin-4-yl)-3-(3-fluoro-phenyl)-N-[4-(methyl-pyridin-4-yl-amino)-benzyl]-acrylamide], 101 nM. In the case of `O=C(/C=C/c1ccc(C(F)(F)F)cc1)N(Cc1ccnc(N2CCCC2)c1)C1CCN(C2CCCC2)CC1` [Example 206, (E)-N-(1-Cyclopentyl-piperidin-4-yl)-N-(2-pyrrolidin-1-yl-pyridin-4-ylmethyl)-3-(4-trifluoromethyl-phenyl)-acrylamide] it was 451 nM; in that of `Cc1cc(Nc2ccc(CN(C(=O)/C=C/c3ccc(C(F)(F)F)cc3)C3CCN(Cc4cnn(C)c4)CC3)cc2)ccn1` [Example 50, (E)-N-[1-(1-Methyl-1H-pyrazol-4-ylmethyl)-piperidin-4-yl]-N-[4-(2-methyl-pyridin-4-ylamino)-benzyl]-3-(4-trifluoromethyl-phenyl)-acrylamide], 91 nM; in that of `Cc1cnccc1Nc1cccc(CN(C(=O)/C=C/c2ccc(C(F)(F)F)cc2)C2CCN(C(C)C)CC2)c1` [Example 123, (E)-N-(1-Isopropyl-piperidin-4-yl)-N-[3-(3-methyl-pyridin-4-ylamino)-benzyl]-3-(4-trifluoromethyl-phenyl)-acrylamide formate], 21 nM. Turning to `CN(c1ccncc1)c1ccc(CN(C(=O)/C=C/c2ccc(C(F)(F)F)cc2)[C@H]2CCN(C3CCCC3)C2)cc1` [Example 114, (E)-N-((S)-1-Cyclopentyl-pyrrolidin-3-yl)-N-[4-(methyl-pyridin-4-yl-amino)-benzyl]-3-(4-trifluoromethyl-phenyl)-acrylamide], half-maximal inhibition (IC50) required 86 nM. This IC50 is about 4.1-fold higher than that of the compound before. With `CCCN1CCC(N(Cc2ccc(Nc3ccnc(C)c3)cc2)C(=O)/C=C/c2ccc(C(F)(F)F)cc2)CC1` [Example 33, (E)-N-[4-(2-Methyl-pyridin-4-ylamino)-benzyl]-N-(1-propyl-piperidin-4-yl)-3-(4-trifluoromethyl-phenyl)-acrylamide], the IC50 amounted to 42 nM. This IC50 is about 2-fold lower than that of the compound before. In the case of `Cc1cc(Nc2ccc(CN(C(=O)/C=C/c3ccc(C(F)(F)F)cc3)C3CCN(Cc4ccc(O)c(CN(C)C)c4)CC3)cc2)ccn1` [Example 53, (E)-N-[1-(3-Dimethylaminomethyl-4-hydroxy-benzyl)-piperidin-4-yl]-N-[4-(2-methyl-pyridin-4-ylamino)-benzyl]-3-(4-trifluoromethyl-phenyl)-acrylamide] it was 12 nM; in that of `Cc1cc(Nc2ccc(CN(C(=O)/C=C/c3ccc(C(F)(F)F)cc3)C3CCN(C4CCCC4)CC3)cn2)ccn1` [Example 168, (E)-N-(1-Cyclopentyl-piperidin-4-yl)-N-[6-(2-methyl-pyridin-4-ylamino)-pyridin-3-ylmethyl]-3-(4-trifluoromethyl-phenyl)-acrylamide], 42 nM; in that of `O=C(/C=C/c1ccc(C(F)(F)F)cc1)N(Cc1ccc(Nc2ccnc3cc(Cl)ccc23)cc1)C1CCN(C2CCCC2)CC1` [Example 97, (E)-N-[4-(7-Chloro-quinolin-4-ylamino)-benzyl]-N-(1-cyclopentyl-piperidin-4-yl)-3-(4-trifluoromethyl-phenyl)-acrylamide], 120 nM. In the case of `Cc1ncc(-c2ccc(CN(C(=O)/C=C/c3ccc(C(F)(F)F)cc3)C3CCN(C4CCCC4)CC3)cc2)s1` [Example 201, (E)-N-(1-Cyclopentyl-piperidin-4-yl)-N-[4-(2-methyl-thiazol-5-yl)-benzyl]-3-(4-trifluoromethyl-phenyl)-acrylamide] it was 357 nM; in that of `Cc1cc(Nc2ccc(CN(C(=O)/C=C/c3ccc(C(F)(F)F)cc3)C3CCN(Cc4nccn4C)CC3)cc2)ccn1` [Example 41, (E)-N-[1-(1-Methyl-1H-imidazol-2-ylmethyl)-piperidin-4-yl]-N-[4-(2-methyl-pyridin-4-ylamino)-benzyl]-3-(4-trifluoromethyl-phenyl)-acrylamide], 207 nM. To `CN(c1ccncc1)c1ccc(CN(C(=O)/C=C/c2ccc(C(F)(F)F)cc2)C2CCC3(CC2)CCN(C2CCCC2)CC3)cc1` [Example 67, (E)-N-(3-cyclopentyl-3-azaspiro[5.5]undecan-9-yl)-N-(4-(methyl(pyridin-4-yl)amino)benzyl)-3-(4-(trifluoromethyl)phenyl)acrylamide] belongs 40 nM; to `Cc1cc(Nc2ccc(CN(C(=O)/C=C/c3ccc(C(F)(F)F)cc3)C3CCN(Cc4cnc(C)nc4)CC3)cc2)ccn1` [Example 51, (E)-N-[4-(2-Methyl-pyridin-4-ylamino)-benzyl]-N-[1-(2-methyl-pyrimidin-5-ylmethyl)-piperidin-4-yl]-3-(4-trifluoromethyl-phenyl)-acrylamide], 268 nM; to `Cc1cc(Nc2ccc(CN(C(=O)/C=C/c3ccc(OC(F)(F)F)cc3)C3CCN(C4CCN(C)CC4)CC3)cc2)ccn1` [Example 119, (E)-N-(1′-Methyl-[1,4′]bipiperidinyl-4-yl)-N-[4-(2-methyl-pyridin-4-ylamino)-benzyl]-3-(4-trifluoromethoxy-phenyl)-acrylamide], 46 nM.

On to `Cc1cc(Nc2ccc(CN(C(=O)/C=C/c3ccc(Cl)cc3)C3CCN(C4CCCC4)CC3)nc2)ccn1` [Example 171, (E)-3-(4-Chloro-phenyl)-N-(1-cyclopentyl-piperidin-4-yl)-N-[5-(2-methyl-pyridin-4-ylamino)-pyridin-2-ylmethyl]-acrylamide], for which the IC50 came out at 134 nM. Regarding `CCN(CC)Cc1cc(Nc2ccc(CN(C(=O)/C=C/c3ccc(C(F)(F)F)cc3)C3CCN(C)CC3)cc2)ccc1O` [Example 185, (E)-N-[4-(3-Diethylaminomethyl-4-hydroxy-phenylamino)-benzyl]-N-(1-methyl-piperidin-4-yl)-3-(4-trifluoromethyl-phenyl)-acrylamide], the 50% inhibitory concentration (IC50) was found to be 39 nM. As to `CN(c1ccncc1)c1ccc(CN(C(=O)/C=C/c2ccc(C(F)(F)F)cc2)C2CCN(Cc3ncc4ccccn34)CC2)cc1` [Example 20, (E)-N-(1-Imidazo[1,5-a]pyridin-3-ylmethyl-piperidin-4-yl)-N-[4-(methyl-pyridin-4-yl-amino)-benzyl]-3-(4-trifluoromethyl-phenyl)-acrylamide], half-maximal inhibition (IC50) required 256 nM.
